# Assay results from US5663205A, “Pharmaceutical composition for use in glaucoma treatment” (Senju Pharmaceutical Co. Ltd., priority 1992, dated 1997).
# Tested on: anterior ocular segment
# Experiment: Test Example 7 (2)(c): ocular local toxicity, visual observation on the anterior ocular segment, 28 days instillation
# Type: in vivo, Japanese white rabbits
# Set-up: Cornea (opacity x area), numerical rating / Iris, numerical rating / Conjunctiva (A) redness of palpebral conjunctiva, numerical rating / Conjunctiva (B) edema of palpebral conjunctiva, numerical rating / Conjunctiva (C) redness of bulbar conjunctiva, numerical rating / Conjunctiva (D) nictitating membrane, numerical rating / Conjunctiva (E) discharge, numerical rating / Total numerical rating: scale not given here
# Experimental: (2) Ocular local toxicity test in rabbits of 1.0% and 0.5% ophthalmic solutions of amosulalol hydrochloride by consecutive instillation for 28 days:
# With 15 male Japanese white rabbits divided into 3 groups each consisting of 5 rabbits, 1.0% and 0.5% ophthalmic solutions of amosulalol hydrochloride as well as physiological saline as a control were applied in one drop (0.05 ml) per time to the right eye of each rabbit alone, four times a day at a regular interval of 2.5 hours, for 28 days consecutively with the left eye being left untreated.
# (c) Visual observation on the anterior ocular segment; Based on the below-described criteria for assessment of ocular injuries (Gendai no Rinsho (Present-Day Clinics) Vol. 4, No. 4, pp. 227-289, 1970), numerical rating was performed on 1.0% and 0.5% ophthalmic solutions of amosulalol hydrochloride before instillation as well as on the day (Day 1) of initiating the instillation and on the 2nd, 4th, 7th, 14th, 21st, 28th days after initiating the instillation but each time after completion of the instillation and on the morning of the last instillation (29th day). With reference to the results of numerical rating, a numerical rating of not less than 1 as determined on either of the items was understood to be judged "injurious to the eye" while numerical ratings of 0 and 0.5 were considered "not injurious to the eye".
# Criteria for assessment of ocular injuries:
# Tables 5 and 6 show the results of the visual observation on the anterior ocular section, being specified above under Item (c), as obtained with 1.0% and 0.5% ophthalmic solutions of amosulalol hydrochloride, respectively, wherein each value given represents a mean for 5 cases.
# In Tables 5 and 6, the numerical rating of cornea means the value obtained by multiplying a value in "(A) Degree of Opacity" by that of "(B) Area of opacity" in the above-described "Criteria for assessment of ocular injuries".
# [1] = 0.5% solution, before instillation, mean of 5
# [2] = 0.5% solution, day 1, mean of 5
# [3] = 0.5% solution, day 2, mean of 5
# [4] = 0.5% solution, day 4, mean of 5
# [5] = 0.5% solution, day 7, mean of 5
# [6] = 0.5% solution, day 14, mean of 5
# [7] = 0.5% solution, day 21, mean of 5
# [8] = 0.5% solution, day 28, mean of 5
# [9] = 0.5% solution, day 29, mean of 5
# [10] = 1.0% solution, before instillation, mean of 5
# [11] = 1.0% solution, day 1, mean of 5
# [12] = 1.0% solution, day 2, mean of 5
# [13] = 1.0% solution, day 4, mean of 5
# [14] = 1.0% solution, day 7, mean of 5
# [15] = 1.0% solution, day 14, mean of 5
# [16] = 1.0% solution, day 21, mean of 5
# [17] = 1.0% solution, day 28, mean of 5
# [18] = 1.0% solution, day 29, mean of 5
smiles,measurement,setting,value
"COc1ccccc1OCCNCC(O)c1ccc(C)c(S(N)(=O)=O)c1.Cl (centres unmarked) [amosulalol hydrochloride, 5-[1-hydroxy-2-[2-(2-methoxyphenoxy)ethylamino]ethyl]-2-methylbenzenesulfonamide hydrochloride]","Conjunctiva (A) redness of palpebral conjunctiva, numerical rating",[1],0
same,"Conjunctiva (B) edema of palpebral conjunctiva, numerical rating",[1],0
same,"Conjunctiva (C) redness of bulbar conjunctiva, numerical rating",[1],0
same,"Conjunctiva (D) nictitating membrane, numerical rating",[1],0
same,"Conjunctiva (E) discharge, numerical rating",[1],0
same,"Cornea (opacity x area), numerical rating",[1],0
same,"Iris, numerical rating",[1],0
same,Total numerical rating,[1],0
same,"Conjunctiva (A) redness of palpebral conjunctiva, numerical rating",[2],0
same,"Conjunctiva (B) edema of palpebral conjunctiva, numerical rating",[2],0
same,"Conjunctiva (C) redness of bulbar conjunctiva, numerical rating",[2],0.4
same,"Conjunctiva (D) nictitating membrane, numerical rating",[2],0
same,"Conjunctiva (E) discharge, numerical rating",[2],0
same,"Cornea (opacity x area), numerical rating",[2],0
same,"Iris, numerical rating",[2],0
same,Total numerical rating,[2],0.4
same,"Conjunctiva (A) redness of palpebral conjunctiva, numerical rating",[3],0
same,"Conjunctiva (B) edema of palpebral conjunctiva, numerical rating",[3],0
same,"Conjunctiva (C) redness of bulbar conjunctiva, numerical rating",[3],0.4
same,"Conjunctiva (D) nictitating membrane, numerical rating",[3],0
same,"Conjunctiva (E) discharge, numerical rating",[3],0
same,"Cornea (opacity x area), numerical rating",[3],0
same,"Iris, numerical rating",[3],0
same,Total numerical rating,[3],0.4
same,"Conjunctiva (A) redness of palpebral conjunctiva, numerical rating",[4],0
same,"Conjunctiva (B) edema of palpebral conjunctiva, numerical rating",[4],0
same,"Conjunctiva (C) redness of bulbar conjunctiva, numerical rating",[4],0.2
same,"Conjunctiva (D) nictitating membrane, numerical rating",[4],0
same,"Conjunctiva (E) discharge, numerical rating",[4],0
same,"Cornea (opacity x area), numerical rating",[4],0
same,"Iris, numerical rating",[4],0
same,Total numerical rating,[4],0.2
same,"Conjunctiva (A) redness of palpebral conjunctiva, numerical rating",[5],0
same,"Conjunctiva (B) edema of palpebral conjunctiva, numerical rating",[5],0
same,"Conjunctiva (C) redness of bulbar conjunctiva, numerical rating",[5],0.2
same,"Conjunctiva (D) nictitating membrane, numerical rating",[5],0
same,"Conjunctiva (E) discharge, numerical rating",[5],0
same,"Cornea (opacity x area), numerical rating",[5],0
same,"Iris, numerical rating",[5],0
same,Total numerical rating,[5],0.2
same,"Conjunctiva (A) redness of palpebral conjunctiva, numerical rating",[6],0
same,"Conjunctiva (B) edema of palpebral conjunctiva, numerical rating",[6],0
same,"Conjunctiva (C) redness of bulbar conjunctiva, numerical rating",[6],0.2
same,"Conjunctiva (D) nictitating membrane, numerical rating",[6],0
same,"Conjunctiva (E) discharge, numerical rating",[6],0
same,"Cornea (opacity x area), numerical rating",[6],0
same,"Iris, numerical rating",[6],0
same,Total numerical rating,[6],0.2
same,"Conjunctiva (A) redness of palpebral conjunctiva, numerical rating",[7],0
same,"Conjunctiva (B) edema of palpebral conjunctiva, numerical rating",[7],0
same,"Conjunctiva (C) redness of bulbar conjunctiva, numerical rating",[7],0.1
same,"Conjunctiva (D) nictitating membrane, numerical rating",[7],0
same,"Conjunctiva (E) discharge, numerical rating",[7],0
same,"Cornea (opacity x area), numerical rating",[7],0
same,"Iris, numerical rating",[7],0
same,Total numerical rating,[7],0.1
same,"Conjunctiva (A) redness of palpebral conjunctiva, numerical rating",[8],0
same,"Conjunctiva (B) edema of palpebral conjunctiva, numerical rating",[8],0
same,"Conjunctiva (C) redness of bulbar conjunctiva, numerical rating",[8],0.1
same,"Conjunctiva (D) nictitating membrane, numerical rating",[8],0
same,"Conjunctiva (E) discharge, numerical rating",[8],0
same,"Cornea (opacity x area), numerical rating",[8],0
same,"Iris, numerical rating",[8],0
same,Total numerical rating,[8],0.1
same,"Conjunctiva (A) redness of palpebral conjunctiva, numerical rating",[9],0
same,"Conjunctiva (B) edema of palpebral conjunctiva, numerical rating",[9],0
same,"Conjunctiva (C) redness of bulbar conjunctiva, numerical rating",[9],0
same,"Conjunctiva (D) nictitating membrane, numerical rating",[9],0
same,"Conjunctiva (E) discharge, numerical rating",[9],0
same,"Cornea (opacity x area), numerical rating",[9],0
same,"Iris, numerical rating",[9],0
same,Total numerical rating,[9],0
same,visual observation of the anterior ocular segment,"1.0% and 0.5% ophthalmic solutions, 4 times a day, 28 days",no abnormality
same,"Conjunctiva (A) redness of palpebral conjunctiva, numerical rating",[10],0
same,"Conjunctiva (B) edema of palpebral conjunctiva, numerical rating",[10],0
same,"Conjunctiva (C) redness of bulbar conjunctiva, numerical rating",[10],0
same,"Conjunctiva (D) nictitating membrane, numerical rating",[10],0
same,"Conjunctiva (E) discharge, numerical rating",[10],0
same,"Cornea (opacity x area), numerical rating",[10],0
same,"Iris, numerical rating",[10],0
same,Total numerical rating,[10],0
same,"Conjunctiva (A) redness of palpebral conjunctiva, numerical rating",[11],0.2
same,"Conjunctiva (B) edema of palpebral conjunctiva, numerical rating",[11],0
same,"Conjunctiva (C) redness of bulbar conjunctiva, numerical rating",[11],0.5
same,"Conjunctiva (D) nictitating membrane, numerical rating",[11],0
same,"Conjunctiva (E) discharge, numerical rating",[11],0
same,"Cornea (opacity x area), numerical rating",[11],0
same,"Iris, numerical rating",[11],0
same,Total numerical rating,[11],0.7
same,"Conjunctiva (A) redness of palpebral conjunctiva, numerical rating",[12],0.2
same,"Conjunctiva (B) edema of palpebral conjunctiva, numerical rating",[12],0
same,"Conjunctiva (C) redness of bulbar conjunctiva, numerical rating",[12],0.5
same,"Conjunctiva (D) nictitating membrane, numerical rating",[12],0
same,"Conjunctiva (E) discharge, numerical rating",[12],0
same,"Cornea (opacity x area), numerical rating",[12],0
same,"Iris, numerical rating",[12],0
same,Total numerical rating,[12],0.7
same,"Conjunctiva (A) redness of palpebral conjunctiva, numerical rating",[13],0.1
same,"Conjunctiva (B) edema of palpebral conjunctiva, numerical rating",[13],0
same,"Conjunctiva (C) redness of bulbar conjunctiva, numerical rating",[13],0.5
same,"Conjunctiva (D) nictitating membrane, numerical rating",[13],0
same,"Conjunctiva (E) discharge, numerical rating",[13],0
same,"Cornea (opacity x area), numerical rating",[13],0
same,"Iris, numerical rating",[13],0
same,Total numerical rating,[13],0.6
same,"Conjunctiva (A) redness of palpebral conjunctiva, numerical rating",[14],0.1
same,"Conjunctiva (B) edema of palpebral conjunctiva, numerical rating",[14],0
same,"Conjunctiva (C) redness of bulbar conjunctiva, numerical rating",[14],0.3
same,"Conjunctiva (D) nictitating membrane, numerical rating",[14],0
same,"Conjunctiva (E) discharge, numerical rating",[14],0
same,"Cornea (opacity x area), numerical rating",[14],0
same,"Iris, numerical rating",[14],0
same,Total numerical rating,[14],0.4
same,"Conjunctiva (A) redness of palpebral conjunctiva, numerical rating",[15],0.1
same,"Conjunctiva (B) edema of palpebral conjunctiva, numerical rating",[15],0
same,"Conjunctiva (C) redness of bulbar conjunctiva, numerical rating",[15],0.3
same,"Conjunctiva (D) nictitating membrane, numerical rating",[15],0
same,"Conjunctiva (E) discharge, numerical rating",[15],0
same,"Cornea (opacity x area), numerical rating",[15],0
same,"Iris, numerical rating",[15],0
same,Total numerical rating,[15],0.4
same,"Conjunctiva (A) redness of palpebral conjunctiva, numerical rating",[16],0.1
same,"Conjunctiva (B) edema of palpebral conjunctiva, numerical rating",[16],0
same,"Conjunctiva (C) redness of bulbar conjunctiva, numerical rating",[16],0.3
same,"Conjunctiva (D) nictitating membrane, numerical rating",[16],0
same,"Conjunctiva (E) discharge, numerical rating",[16],0
same,"Cornea (opacity x area), numerical rating",[16],0
same,"Iris, numerical rating",[16],0
same,Total numerical rating,[16],0.4
same,"Conjunctiva (A) redness of palpebral conjunctiva, numerical rating",[17],0.1
same,"Conjunctiva (B) edema of palpebral conjunctiva, numerical rating",[17],0
same,"Conjunctiva (C) redness of bulbar conjunctiva, numerical rating",[17],0.3
same,"Conjunctiva (D) nictitating membrane, numerical rating",[17],0
same,"Conjunctiva (E) discharge, numerical rating",[17],0
same,"Cornea (opacity x area), numerical rating",[17],0
same,"Iris, numerical rating",[17],0
same,Total numerical rating,[17],0.4
same,"Conjunctiva (A) redness of palpebral conjunctiva, numerical rating",[18],0
same,"Conjunctiva (B) edema of palpebral conjunctiva, numerical rating",[18],0
same,"Conjunctiva (C) redness of bulbar conjunctiva, numerical rating",[18],0
same,"Conjunctiva (D) nictitating membrane, numerical rating",[18],0
same,"Conjunctiva (E) discharge, numerical rating",[18],0
same,"Cornea (opacity x area), numerical rating",[18],0
same,"Iris, numerical rating",[18],0
same,Total numerical rating,[18],0
same,side effects such as ocular irritation,ophthalmic solution,free from side effects such as ocular irritation
